Source: patent publication US5688807A, “Method for treating 5HT2B receptor related conditions” (Eli Lilly and Company, priority 1995, dated 1997)
Where a name gives a salt, the structure may show the parent alone.

Assays:
Human 5-HT2B = molecular target: T1, Human 5-HT2B (Homo sapiens, UniProt P41595); assay: [3H]Serotonin radioligand binding, human 5-HT2B; details: Cell assays use Human Cells; read-out: Ki, 5HT2B Cells;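 also: competition of tritiated serotonin binding to cell membranes, bound radioactivity on filters counted by liquid scintillation, IC50 from logistic fits converted to Ki with the Cheng-Prusoff equation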
T1 construct: expressed in transfected cells
T1 sequence (P41595 whole entry): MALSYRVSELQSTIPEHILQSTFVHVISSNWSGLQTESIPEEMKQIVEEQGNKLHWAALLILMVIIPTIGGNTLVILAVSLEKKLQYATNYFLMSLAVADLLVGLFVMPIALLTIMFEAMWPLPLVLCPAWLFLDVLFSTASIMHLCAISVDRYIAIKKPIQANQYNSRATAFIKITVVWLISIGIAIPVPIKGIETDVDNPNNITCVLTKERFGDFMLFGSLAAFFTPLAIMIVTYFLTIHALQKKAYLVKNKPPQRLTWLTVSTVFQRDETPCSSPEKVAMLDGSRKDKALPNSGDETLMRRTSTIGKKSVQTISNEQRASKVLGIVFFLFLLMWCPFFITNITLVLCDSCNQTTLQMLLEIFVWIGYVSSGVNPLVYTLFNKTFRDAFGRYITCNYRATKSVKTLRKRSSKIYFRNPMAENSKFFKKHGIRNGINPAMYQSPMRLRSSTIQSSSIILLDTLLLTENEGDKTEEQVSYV

Human 5-HT2A = Human 5-HT2A (Homo sapiens, UniProt P28223); assay: [125I]DOI radioligand binding, human 5-HT2A
Human 5-HT2A, sequence (P28223 whole entry): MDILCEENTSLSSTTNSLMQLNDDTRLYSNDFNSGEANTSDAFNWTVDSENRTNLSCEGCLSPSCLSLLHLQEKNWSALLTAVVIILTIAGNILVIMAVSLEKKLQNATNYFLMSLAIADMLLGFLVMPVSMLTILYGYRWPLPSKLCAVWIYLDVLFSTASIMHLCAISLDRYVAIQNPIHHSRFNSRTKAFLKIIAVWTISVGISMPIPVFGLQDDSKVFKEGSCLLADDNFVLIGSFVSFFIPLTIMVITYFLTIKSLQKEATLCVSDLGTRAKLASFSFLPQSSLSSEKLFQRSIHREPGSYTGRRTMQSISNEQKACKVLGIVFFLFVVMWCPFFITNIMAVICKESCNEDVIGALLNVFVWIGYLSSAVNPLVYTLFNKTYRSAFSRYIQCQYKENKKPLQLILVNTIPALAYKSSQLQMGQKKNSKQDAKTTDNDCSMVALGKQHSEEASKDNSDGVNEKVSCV

5HT2C = molecular target: T2, 5HT2C (Homo sapiens, UniProt P28335); assay: Human cell assay, 5HT2C cells; type: binding; details: Cell assays use Human Cells
T2 construct: expressed in transfected cells
T2 sequence (P28335 33-458): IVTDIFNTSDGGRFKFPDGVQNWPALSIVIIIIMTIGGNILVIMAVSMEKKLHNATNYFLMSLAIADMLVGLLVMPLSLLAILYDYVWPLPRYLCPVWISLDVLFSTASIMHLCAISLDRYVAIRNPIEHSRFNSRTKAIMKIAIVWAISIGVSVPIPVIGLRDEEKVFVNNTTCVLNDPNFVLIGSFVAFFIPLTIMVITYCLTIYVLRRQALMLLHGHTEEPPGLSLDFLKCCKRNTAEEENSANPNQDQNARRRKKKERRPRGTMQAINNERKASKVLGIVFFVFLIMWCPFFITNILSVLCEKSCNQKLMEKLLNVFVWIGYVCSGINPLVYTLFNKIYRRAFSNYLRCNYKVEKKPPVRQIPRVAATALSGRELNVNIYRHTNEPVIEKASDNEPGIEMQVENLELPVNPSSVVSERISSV
Description: Compounds of this invention were tested using substantially the procedure describe in the Radioligand assay supra. and are summarized in Table I infra. The values in Table I are expressed as Ki values calculated as described supra. The blank values in Table I indicate that the compound was not tested in the corresponding assay.

rat 5-HT2B receptor = rat 5-HT2B receptor (Rattus norvegicus, UniProt P30994); assay: biochemical; type: binding; details: Radioligand assay; Table III;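 also: displacement of [3H]5-HT from membranes of suspension cells carrying cloned rat 5-HT2B receptor, incubated 15 min at 37 °C or 2 h at 0 °C, filter-bound radioactivity counted by scintillation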
rat 5-HT2B receptor, sequence (P30994 whole entry): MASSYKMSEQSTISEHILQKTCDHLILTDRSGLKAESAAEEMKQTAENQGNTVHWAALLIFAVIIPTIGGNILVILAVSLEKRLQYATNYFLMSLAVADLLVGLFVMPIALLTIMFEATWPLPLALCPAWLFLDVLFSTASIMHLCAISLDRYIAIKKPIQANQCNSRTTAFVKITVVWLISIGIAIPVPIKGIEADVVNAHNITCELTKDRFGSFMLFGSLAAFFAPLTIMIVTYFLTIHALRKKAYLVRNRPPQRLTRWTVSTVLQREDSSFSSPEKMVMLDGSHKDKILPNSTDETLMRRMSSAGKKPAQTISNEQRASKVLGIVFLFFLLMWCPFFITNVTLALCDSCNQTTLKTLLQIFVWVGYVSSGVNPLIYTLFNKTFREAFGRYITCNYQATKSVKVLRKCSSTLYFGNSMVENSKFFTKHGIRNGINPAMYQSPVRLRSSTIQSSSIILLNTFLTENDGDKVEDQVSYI

distal colon = assay: Functional in vitro assay: antagonism of serotonin contraction of rat distal colon longitudinal muscle; details: vs serotonin
Excerpt: Functional In vitro Assay:
Sprague-Dawley rats (200-250g; Laboratory Supply, Indianapolis, Ind.) were sacrificed by cervical dislocation and 8 cm segment of distal colon was removed and washed in ice cold modified Kreb's solution of the following composition (millimolar): Nacl, 118.2; Kcl, 4.6; Cacl2. H2 O, 1.6; KH2 PO4, 1.2; MgSO4, 1.2; dextrose, 10.0; and NaHCO3, 24.8. The colon was mounted on a glass rod and the longitudinal muscle layer with attached myenteric plexi was removed and mounted in organ baths, containing above described Kreb's solution maintained at 37° C. and equilibrated with 95% O2 and 5% CO2. Tissues were placed under 2 g tension and allowed to stabilize for 1 hour. Isometric contractions were recorded as changes in grams of force using grass FT03 transducers and MI^2 - computerized dynograph system. Cumulative concentration-response curves for serotonin were obtained by a stepwise increase in concentration after washing out the preceding concentration for 10-15 minutes. Each agonist concentration remained in contact with the tissue for 5 minutes. Maximum response to each concentration was determined and digitized. EC50 values were taken as the concentration of agonist that produced half maximal contraction. After control responses were obtained, tissues were incubated with an appropriate concentration of antagonist for 15 minutes. Response to serotonin were then repeated in the presence of an antagonist. Concentration-response utilized only one concentration of antagonist per tissue. Apparent antagonist dissociation constants (KB) were determined for each concentration of antagonist according to the following equation:
KB =[B]/(dose ratio-1), where [B] is the concentration of the antagonist and dose ratio is the ED50 of the agonist in the presence of antagonist divided by the control ED50. The results were expressed as the negative logarithm of the KB (i.e., -log KB) (Br. J. Pharmacol. Methods 4:4165, (1980).
The functional in vitro method described supra. was used to test compounds of this invention. Values are expressed as pKi and pA2 (-log KB). The following table illustrates the results obtained when the compounds were tested using the Radioligand assay supra. (pKi) and the functional in vitro method described supra. (pA2)

colon = assay: In vivo inhibition of serotonin-induced colonic motility in anesthetized rats; details: Rattus norvegicus, iv; anesthetized Sprague-Dawley rats
Description: Sprague-Dawley Rats (250-300 g) were fasted overnight. The rats were anesthetized with urethane ([…]) delivered intraperitoneally. The abdominal cavity was opened and strain guage transducers were sewn on the antimesenteric border of the colon. The transducers were oriented to record circular muscle contractions. The animal body temperature was maintained by a heating pad. An intravenous catheter was inserted into the jugular vein for drug administration. The carotid blood pressure was also monitored. Output of the strain guage transducers was graphed on a Beckman Dynograph. Baseline motility was monitored for 30 minutes. At the end of the 30 minute period, a vehicle control dose was administered and motility was recorded for an additional 15 minutes. A serotonin dose response was developed. Successively higher doses of serotonin were administered at 15 minute intervals. An ED50 dose was calculated, which was the dose producing half maximal contraction. In antagonist experiments, historical ED50 dose was administered to validate the experimental set up. Next, a dose of antagonist was given. The motility was monitored for 15 minutes. […] Motility was evaluated by measuring the number of contractions and multiplying them by the amplitude of contractions over a set time period to provide a Motility Index. The percent inhibition was calculated from the vehicle (no antagonist) treated group. […]

SMILES	Ki (Human 5-HT2B) [nM]	Ki (Human 5-HT2A) [nM]	Ki (5HT2C) [nM]	pKi (rat 5-HT2B receptor)	pA2 (-log KB) (distal colon)	ED50 (colon) [mg/kg]
Cc1ccc2[nH]c3c(c2c1)[C@@H]1CCCC[C@H]1NC3 (relative stereo) [Example 95, Trans-10-methyl-2,3,4,4a,5,6,7,11c-octahydro-1H-indolo[2,3c]quinoline, hydrochloride]	840	3440	2640	–	–	–
Cc1cc(Br)c2[nH]c3c(c2c1)CCNC3 [Example 73, 6-methyl-8-bromo-1,2,3,4-tetrahydro-9H-pyrido[3,4b]-indole]	–	–	–	7.85	8.9	3.2
Cc1ccc2[nH]c3c(c2c1)[C@@H]1CCCC[C@H]1NC3Cc1cccc2ccccc12 (stereo partly drawn) [Example 105, Trans-10-methyl-6-(1-naphthylmethyl)-2,3,4,4a,5,6,7,11c-octahydro-1H-indolo[2,3-c]quinoline, hydrochloride]	22.1	86.5	195	–	–	–
COc1cc2c(cc1OC)CC1(CC2)N[C@@H]2CCCC[C@H]2c2c1[nH]c1ccc(C)cc21 (stereo partly drawn) [Example 107, Trans-spiro-6,6-[2-(3,4-dimethoxy)-1,2,3,4-tetrahydronaphthyl]-10-methyl-2,3,4,4a,5,6,7,11a-octahydro-1H-indolo[2,3-c]quinidine, hydrochloride]	178	363	325	–	–	–
